This is an account of results in patent US5401771A, “Method of combatting household insects” (priority 1992, dated 1995).

Bounds are passed on as bounds.

For one data set, the system named is housefly. Description: Study of the killing effect on the housefly (direct spraying, Kearns and March chamber). The data set is classed as in vivo. The following applies: for KT50 (time where 50% of the insects were killed): 4-day old female houseflies, direct spraying, dose 0.25 g/l, Isopar L with 5% acetone. Here is the method: A. Study of the killing effect on the housefly.
The insects used were 4-day old female houseflies and the operation was carried out by direct spraying at a concentration of 0.25 g/1 in a Kearns and March chamber. The tested product was dissolved in Isopar L (petroleum solvent) with 5% acetone. 2 ml of solution were sprayed per second and 50 insects were used per treatment Checks were carried out every minute for 10 minutes, then after 15 minutes. The (KT50) time in minutes where 50% of the insects were killed was determined and the results are in Table I.

In data set [1] the test system is cockroaches (Blattella germanica). Description: Study of the knock-down effect on cockroaches (direct spraying). The format is in vivo. The following applies: for percentage of cockroaches knocked down at 100 µg/mL / percentage of cockroaches knocked down at 500 µg/mL: Blattella germanica, 5 min, after 5 minutes, 12-week old males, read-out: KD (percentage of cockroaches knocked down), printed % KILLED; for percentage of cockroaches knocked down at 100 µg/mL: 100 mg/l; for percentage of cockroaches knocked down at 500 µg/mL: 500 mg/l. The method, then:
B. Study of the knock-down effect on cockroaches
The test was carried out on 12-week old male cockroaches (Blattella germanica) and the operation was carried out by direct spraying in a 13.5 cm diameter glass chamber. The product tested was dissolved in Isopar and 0.75 ml of solution was sprayed for 2.5 seconds on 20 cockroaches having been placed beforehand in the chamber. The KD (percentage of cockroaches knocked down) after 5 minutes at a dose of 500 mg/1 was determined and the products corresponding to 100% of KD insects at this does were evaluated at a dose of 100 mg/1 by the same protocol and the results are in Table II.

In data set [2] the test system is rats. Description: Acute toxicity on mammals by oral route. The data set is classed as in vivo. The following applies: relative to C (cis E). The method, then: (§1) C. Acute toxicity on mammals
(§2) type: rats, vehicle: corn oil.
(§3) The results were expressed in LD50 mg/kg and the results obtained are as follows: […]

The nature of data set [3]: Acute toxicity on mammals by oral route. The format is in vivo, rats. The settings on record: rat, in vivo, rats, vehicle corn oil, read-out: LD50 O.R. (oral route). Here is the method:
as §1, §2, §3

In data set [4] the test system is rats. Kind of data set: Acute toxicity on mammals by intravenous route. The data set is classed as in vivo. The following applies: relative to C (cis E). Here is the method:
as §1
(§4) type: rats, vehicle: PEG 300.
as §3

Data set [5] in a line: Acute toxicity on mammals by intravenous route. The format is in vivo, rats. The settings on record: rat, in vivo, rats, vehicle PEG 300, read-out: LD50 I.R. (intravenous route). Here is the method: as §1, §4, §3
[6] abbreviates: conclusion in words, equivalent notably to C (cis E).

For `C=CCC1=C(C)C(OC(=O)[C@@H]2[C@@H](C=C(C)C)C2(C)C)CC1=O` (stereo partly drawn) [Bioallethrin], the “KT50 (time where 50% of the insects were killed)” value in the data set with housefly was 10 min.
Regarding `COC(=O)/C(F)=C/[C@@H]1[C@@H](C(=O)O[C@H](C#N)c2cccc(Oc3ccccc3)c2)C1(C)C` [Product A, (S) α-cyano-3-phenoxy-benzyl(1R, trans) 2,2-dimethyl-3-[(ΔZ) 2-fluoro-3-oxo-3-methoxy-propenyl]-cyclopropane carboxylate], in the data set on housefly, the “KT50 (time where 50% of the insects were killed)” value is 2.7 min. In addition, the “killing activity on flies” value with housefly (setting [6]) is “good killing activity”. Further, the percentage of cockroaches knocked down at 100 µg/mL in data set [1] is 100%. Further, in data set [1] (setting [6]), the “killing activity on cockroaches” value was “good killing activity”. Moreover, in the data set on rats [2], the “toxicity on mammals lower than that of C (cis E), orally” value was “at least 20 times”. Besides, the LD50 in data set [3] was above 2000 mg/kg; in data set [5] it was around 10 mg/kg. Further, in the data set with rats [4], the “toxicity on mammals lower than that of C (cis E), intravenously” value is “at least 20 times”.
Take `COC(=O)/C(F)=C\[C@@H]1[C@@H](C(=O)O[C@H](C#N)c2cccc(Oc3ccccc3)c2)C1(C)C` [Product B]: in data set [1], the percentage of cockroaches knocked down at 100 µg/mL worked out at 47%. The LD50 in data set [3] is above 200 mg/kg; in data set [5], 2.5 to 5 mg/kg.
For `COC(=O)/C(F)=C\[C@H]1[C@@H](C(=O)O[C@H](C#N)c2cccc(Oc3ccccc3)c2)C1(C)C` [Product C], the “KT50 (time where 50% of the insects were killed)” value with housefly was found to be 2.7 min. In addition, the percentage of cockroaches knocked down at 100 µg/mL in data set [1] came out at 95%. The figures for the LD50 in data set [3] and in data set [5] were around 100 mg/kg and 0.1 to 0.5 mg/kg, respectively.
Take `COC(=O)/C(F)=C/[C@H]1[C@@H](C(=O)O[C@H](C#N)c2cccc(Oc3ccccc3)c2)C1(C)C` [Product D]: the “KT50 (time where 50% of the insects were killed)” value with housefly turned out to be 3.7 min. For the same molecule, in data set [1], the percentage of cockroaches knocked down at 500 µg/mL was 90%. Also, the LD50 in data set [3] is above 200 mg/kg; in data set [5], 2.5 to 7.5 mg/kg.
`CC(C)=CC1C(C(=O)OCN2C(=O)C3=C(CCCC3)C2=O)C1(C)C` (stereo not drawn) [TETRAMETHRIN, Tetramethrin]: in data set [1], the percentage of cockroaches knocked down at 500 µg/mL came to 70%.

Broadly, the LD50 is the dose at which mortality reaches 50%.
